Usually melting point stands for the temperature of the solid-liquid transition.

In patent US20010006969A1, “PYRIMIDINE NUCLEUS-CONTAINING COMPOUND AND A MEDICAMENT CONTAINING THE SAME FOR A BLOOD OXYGEN PARTIAL PRESSURE AMELIORATION, AND A METHOD FOR PREPARING THE SAME” (priority 1997, published 2001) one finds melting point data, which are given here for 47 molecules.

Where a name gives a salt, the structure may show the parent alone.

`C=CCNc1nc(NCC=C)c2cc(NC)ccc2n1` (as salt: hydrochloride) showed a melting point of 155 to 158 °C. The value for `C=CCNc1nc(NC(C)CC)nc2ccc([N+](=O)[O-])cc12` (centres unmarked) (as salt: hydrochloride) was 219 to 220 °C; that for `C=CCNc1nc(NC(C)(C)C)c2cc([N+](=O)[O-])ccc2n1` (as salt: hydrochloride) was 208 to 209 °C. In the case of `C=CCNc1nc(N(CC=C)CC=C)nc2c(C)csc12` (as salt: hydrochloride) it was 136 to 138 °C (dec.); in that of `C=CCNc1nc(NC(=O)NC(C)(C)C)c2scc(C)c2n1` (as salt: hydrochloride), 192 to 194 °C; in that of `C=CCNc1nc(NCc2ccco2)nc2ccc([N+](=O)[O-])cc12` (as salt: hydrochloride) [Example 33, 4-Allylamino-2-furfurylamino-6-nitroquinazoline hydrochloride], 217 to 218 °C. In the case of `C=CCNc1nc(NC(C)CC)c2cc([N+](=O)[O-])ccc2n1` (stereo not drawn) (as salt: hydrochloride) [Example 49, 2-Allyiamino-4-(l-methylpropylamino)-6-nitroquinazoline hydrochloride] it was 176 to 177 °C.

Molecule `C=CCNc1nc(NC2CCCCC2)c2scc(C)c2n1` (as salt: hydrochloride) [Example 70, 2-Allylamino-4-cyclohexylamino-7-methylthieno[3,2-d] pyrimidine hydrochloride] yielded a melting point of 140 to 142 °C. As to `C=CCNc1nc(N(CC=C)CC=C)c2scc(C)c2n1` (as salt: hydrochloride) [Example 71, 2-Allylamino-4-diallylamino-7-methylthieno[3,2-d] pyrimidine hydrochloride], the melting point is 76 to 78 °C (dec.). The value for `C=CCNc1nc(NCCOC)nc2ccc([N+](=O)[O-])cc12` [Example 8, 4-Allylamino-2-(2-methoxyethylamino)-6-nitroquinazoline] was 164 to 165 °C; that for `C=CCNc1nc(N(CC=C)CC=C)nc2ccc([N+](=O)[O-])cc12` [Example 9, 4-Allylamino-2-diallylamino-6-nitroquinazoline] was 167 to 168 °C.

Molecule `C=CCNc1nc(NCC(C)(C)C)c2cc([N+](=O)[O-])ccc2n1` [Example 11, 2-Allylamino-4-neopentylamino-6-nitroauinazoline] registered a melting point of 216 to 217 °C. In the case of `C=CCNc1nc(NCc2ccccc2)c2cc([N+](=O)[O-])ccc2n1` [Example 12, 2-Allylamino-4-benzylamino-6-nitroquinazoline] it was 235 to 236 °C; in that of `C=CCNc1nc(N2CCCCC2)c2cc([N+](=O)[O-])ccc2n1` [Example 13, 2-Allylamino-6-nitro-4-piperidinoquinazoline], 123 to 124 °C. Take `C=CCNc1nc(NCC=C)c2cc(N)ccc2n1` [Example 14, 2,4-Diallylamino-6-aminoquinazoline]: the melting point was 212 to 215 °C.

The molecule `C=CCNc1nc(N(CC=C)CC=C)nc2ccc(Cl)cc12` [Example 15, 4-Allylamino-2-diallylamino-6-chloroquinazoline] came in with a melting point of 73 to 74 °C. `C=CCNc1nc(NC)nc2ccc([N+](=O)[O-])cc12` [Example 16, 4-Allylamino-2-methylamino-6-nitroquinazoline] yielded a melting point of 238 to 239 °C. In the case of `C=CCNc1nc(NCC)nc2ccc([N+](=O)[O-])cc12` [Example 17, 4-Allylamino-2-ethylamino-6-nitroquinazoline] it was 227 to 228 °C. The value for `C=CCNc1nc(NC(C)(C)C)nc2ccc([N+](=O)[O-])cc12` [Example 19, 4-Allylamino-2-t-butylamino-6-nitroquinazoline] was 139 to 140 °C; that for `C=CCNc1nc(NCCN)nc2ccc([N+](=O)[O-])cc12` [Example 20, 4-Allylamino-2-(2-aminoethylamino)-6-nitroquinazoline] was 126 to 128 °C; that for `C=CCNc1nc(NC/C=C/c2ccccc2)c2cc([N+](=O)[O-])ccc2n1` [Example 23, 2-Allylamino-4-trans-cinnamylamino-6-nitroquinazoline] was 206 to 208 °C. The molecule `C=CCNc1nc(NCCCC)c2cc([N+](=O)[O-])ccc2n1` [Example 24, 2-Allylamino-4-butylamino-6-nitroquinazoline] gave a melting point of 214 to 215 °C. In the case of `C#CCNc1nc(NCC=C)c2cc([N+](=O)[O-])ccc2n1` [Example 29, 4-Allylamino-6-nitro-2-(2-propynylamino)quinazoline] it was 192 to 193 °C; in that of `C=CCNc1nc(NC/C=C/C)nc2ccc([N+](=O)[O-])cc12` [Example 30, 4-Allylamino-2-(trans-2-butenylamino)-6-nitroquinazoline], 188 to 189 °C; in that of `C=CCNc1nc(NCCCCCCC)nc2ccc([N+](=O)[O-])cc12` [Example 36, 4-Allylamino-2-heptylamino-6-nitroquinazoline], 173 to 174 °C. The value for `C=CCNc1nc(NN2CCCCC2)nc2ccc([N+](=O)[O-])cc12` [Example 37, 4-Allylamino-6-nitro-2-piperidinoaminoquinazoline] was 221 to 222 °C; that for `C=CCNc1nc(NCCOCCC)nc2ccc([N+](=O)[O-])cc12` [Example 38, 4-Allylamino-6-nitro-2-(2-propoxyethylamino)quinazoline] was 169 to 170 °C; that for `C=CCNc1nc(NC(=O)NC(C)(C)C)c2cc([N+](=O)[O-])ccc2n1` [Example 40, 2-Allylamino-4-(t-butylcarbamoyl)amino-6-nitroquinazoline] was 200 to 201 °C. Consider `C=CCN(C(=O)NC(C)(C)C)c1nc(NC(=O)NC(C)(C)C)c2cc([N+](=O)[O-])ccc2n1` [Example 41, 2-[N-allyl-N-(t-butylcarbamoyl)amino]-4-(t-butylcarbamoyl)amino-6-nitroquinazoline], for which the melting point lay in the range of 105 to 106 °C. For `C=CCNc1nc(NC(C)=O)c2cc([N+](=O)[O-])ccc2n1` [Example 42, 4-Acetylamino-2-allylamino-6-nitroquinazoline], the melting point lay in the range of 253 to 254 °C. In the case of `C=CCNc1nc(NC(=O)OCC(C)C)c2cc([N+](=O)[O-])ccc2n1` [Example 43, 2-Allylamino-4-(2-methylpropoxycarbonyl)amino-6-nitroquinazoline] it was 148 to 149 °C.

Regarding `C=CCNc1nc(NC(C)=O)nc2ccc([N+](=O)[O-])cc12` [Example 44, 2-Acetylamino-4-allylamino-6-nitroquinazoline], the melting point fell in the range of 239 to 240 °C.

Take `C=CCNc1nc(NC(=O)NCCC)nc2ccc([N+](=O)[O-])cc12` [Example 45, 4-Allylamino-6-nitro-2-(propylcarbamoyl)aminoquinazoline]: the melting point lay in the range of 254 to 255 °C. In the case of `C=CCNc1nc(NN(C)C)c2cc([N+](=O)[O-])ccc2n1` [Example 46, 2-Allylamino-4-(2,2-dimethylhydrazino)-6-nitroquinazoline] it was 145 to 146 °C; in that of `C=CCNc1nc(NCCCCCCCCCCCC)c2cc([N+](=O)[O-])ccc2n1` [Example 47, 2-Allylamino-4-dodecylamino-6-nitroquinazoline], 154 to 155 °C; in that of `C=CCNc1nc(NCCCCCCCCCCCC)nc2ccc([N+](=O)[O-])cc12` [Example 48, 4-Allylamino-2-dodecylamino-6-nitroquinazoline], 148 to 155 °C. As to `C=CCNc1nc(NC23CC4CC(CC(C4)C2)C3)c2cc([N+](=O)[O-])ccc2n1` [Example 52, 4-(1-Adamantylamino)-2-allylamino-6-nitroquinazoline], the melting point is 224 to 225 °C. In turn, `C=CCNc1nc(NCCC(=O)N2CCCCC2)nc2ccc([N+](=O)[O-])cc12` [Example 53, 4-Allylamino-6-nitro-2-[2-(piperidinocarbonyl)ethylamino] quinazoline] came in with a melting point of 178 to 179 °C. In the case of `C=CCNc1nc(NCc2ccccn2)nc2ccc([N+](=O)[O-])cc12` [Example 54, 4-Allylamino-6-nitro-2-(2-pyridylmethylamino)quinazoline] it was 202 to 203 °C; in that of `C=CCNc1nc(NCC(F)(F)F)c2cc([N+](=O)[O-])ccc2n1` [Example 55, 2-Allylamino-4-(2,2,2-trifluoroethylamino)-6-nitroquinazoline], 215 to 216 °C.

Take `C=CCNc1nc(NCC(F)(F)F)nc2ccc([N+](=O)[O-])cc12` [Example 56, 4-Allylamino-2-(2,2,2-trifluoroethylamino)-6-nitroquinazoline]: the melting point lay in the range of 221 to 222 °C. The molecule `C=CCNc1nc(NCC=C(C)C)nc2ccc([N+](=O)[O-])cc12` [Example 58, 4-Allylamino-2-(3-methyl-2-butenylamino)-6-nitroquinazoline] displayed a melting point of 194 to 195 °C. The value for `C=CCNc1nc(NCC=C(C)C)c2cc([N+](=O)[O-])ccc2n1` [Example 59, 2-Allylamino-4-(3-methyl-2-butenylamino)-6-nitroquinazoline] was 209 to 210 °C. In the case of `CC(C)=CCNc1nc(NCC=C(C)C)c2cc([N+](=O)[O-])ccc2n1` [Example 61, 2,4-Bis(3-methyl-2-butenylamino)-6-nitroquinazoline] it was 168 to 172 °C; in that of `C=CC(C)Nc1nc(NCCCC)nc2ccc([N+](=O)[O-])cc12` (centres unmarked) [Example 62, 2-Butylamino-4-(1-methyl-2-propenylamino)-6-nitroquinazoline], 156 to 158 °C; in that of `C=CCNc1nc(NC(C)C=C)c2cc([N+](=O)[O-])ccc2n1` (centres unmarked) [Example 63, 2-Allylamino-4-(1-methyl-2-propenylamino)-6-nitroquinazoline], 172 to 173 °C. For the molecule `C=CC(C)Nc1nc(NC(C)C=C)c2cc([N+](=O)[O-])ccc2n1` (centres unmarked) [Example 64, 2,4-Bis(1-methyl-2-propenylamino)-6-nitroquinazoline], the melting point lay in the range of 122 to 125 °C.
